# Results as given in ChEMBL document CHEMBL3991601, “The target landscape of clinical kinase drugs” (Science, 2017).
# Active and inactive are the calls of the source.
# Molecular target: Ribosomal protein S6 kinase alpha-4 (Homo sapiens, UniProt O75676)
# Further: in the data inactive means no Kd found up to 30 µM.
# Chain of Ribosomal protein S6 kinase alpha-4 (O75676 whole entry): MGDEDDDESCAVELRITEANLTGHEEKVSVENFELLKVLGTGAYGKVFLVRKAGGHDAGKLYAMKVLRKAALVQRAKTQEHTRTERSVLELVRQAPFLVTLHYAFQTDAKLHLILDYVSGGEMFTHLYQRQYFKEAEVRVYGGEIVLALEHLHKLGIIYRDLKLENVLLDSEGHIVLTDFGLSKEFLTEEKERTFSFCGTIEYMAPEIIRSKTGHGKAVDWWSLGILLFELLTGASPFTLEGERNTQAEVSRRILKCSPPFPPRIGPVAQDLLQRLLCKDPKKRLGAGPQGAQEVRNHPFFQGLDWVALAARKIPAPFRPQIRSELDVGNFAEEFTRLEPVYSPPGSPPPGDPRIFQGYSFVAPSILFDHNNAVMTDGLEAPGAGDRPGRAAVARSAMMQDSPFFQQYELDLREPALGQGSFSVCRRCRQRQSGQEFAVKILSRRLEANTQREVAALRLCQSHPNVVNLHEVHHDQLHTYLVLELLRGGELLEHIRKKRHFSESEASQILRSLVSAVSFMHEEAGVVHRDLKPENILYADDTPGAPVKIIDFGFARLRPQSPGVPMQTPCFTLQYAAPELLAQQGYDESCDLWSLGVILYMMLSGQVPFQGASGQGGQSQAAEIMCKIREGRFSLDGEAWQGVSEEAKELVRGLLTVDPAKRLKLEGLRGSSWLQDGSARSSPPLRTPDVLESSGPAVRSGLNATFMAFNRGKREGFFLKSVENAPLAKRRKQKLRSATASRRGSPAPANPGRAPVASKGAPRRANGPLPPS
row,Compound,Kd
1,OCCn1cc(-c2cnc3nnn(Cc4ccc5ncccc5c4)c3n2)cn1 [PF-04217903],> 30 µM (inactive)
2,O=C(Nc1cccc(Cl)c1)Nc1ncc(CCNc2ncnc3ccsc23)s1 [SNS-314],> 30 µM (inactive)
3,CCn1c(=O)c(-c2cc[nH]n2)cc2c(C)nc(N)nc21 [VOXTALISIB],> 30 µM (inactive)

# Molecular target: T1, ATP-dependent 6-phosphofructokinase, platelet type (Homo sapiens, UniProt Q01813)
# T1 sequence (Q01813 whole entry): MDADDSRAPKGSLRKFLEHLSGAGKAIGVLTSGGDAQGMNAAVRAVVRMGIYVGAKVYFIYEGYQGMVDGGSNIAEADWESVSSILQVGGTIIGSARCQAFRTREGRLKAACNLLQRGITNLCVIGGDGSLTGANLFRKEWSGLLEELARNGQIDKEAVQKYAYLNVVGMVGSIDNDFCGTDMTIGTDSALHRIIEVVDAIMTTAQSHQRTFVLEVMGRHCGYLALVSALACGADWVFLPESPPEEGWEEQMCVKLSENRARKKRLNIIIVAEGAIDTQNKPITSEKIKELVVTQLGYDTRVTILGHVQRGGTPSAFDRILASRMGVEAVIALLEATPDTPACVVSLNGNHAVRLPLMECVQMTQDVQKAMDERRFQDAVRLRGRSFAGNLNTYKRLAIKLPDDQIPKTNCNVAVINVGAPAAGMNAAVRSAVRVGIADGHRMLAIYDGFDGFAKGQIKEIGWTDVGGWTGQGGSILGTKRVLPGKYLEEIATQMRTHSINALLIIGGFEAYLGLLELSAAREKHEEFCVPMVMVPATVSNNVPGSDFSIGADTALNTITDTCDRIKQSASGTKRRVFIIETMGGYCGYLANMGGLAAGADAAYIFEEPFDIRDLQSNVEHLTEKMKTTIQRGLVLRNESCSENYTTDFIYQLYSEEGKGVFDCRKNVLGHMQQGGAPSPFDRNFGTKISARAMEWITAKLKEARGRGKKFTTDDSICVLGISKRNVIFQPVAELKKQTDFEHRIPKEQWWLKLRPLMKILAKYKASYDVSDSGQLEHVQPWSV
row,Compound,Kd
1,Cc1nc(N)sc1-c1ccnc(Nc2ccc(N3CCOCC3)cc2)n1 [CYC-116],> 30 µM (inactive)
2,CN1CCN(c2ccc3nc(-c4c(N)c5c(F)cccc5[nH]c4=O)[nH]c3c2)CC1 [DOVITINIB],> 30 µM (inactive)
3,CCn1c(-c2nonc2N)nc2c(C#CC(C)(C)O)ncc(OC[C@H]3CCCNC3)c21 [GSK-690693],> 30 µM (inactive)
4,Cc1cn(-c2cc(NC(=O)c3ccc(C)c(Nc4nccc(-c5cccnc5)n4)c3)cc(C(F)(F)F)c2)cn1 [NILOTINIB],> 30 µM (inactive)
5,OCCn1cc(-c2cnc3nnn(Cc4ccc5ncccc5c4)c3n2)cn1 [PF-04217903],> 30 µM (inactive)
6,O=C(Nc1cccc(Cl)c1)Nc1ncc(CCNc2ncnc3ccsc23)s1 [SNS-314],> 30 µM (inactive)
7,Nc1nc(N)c2nc(-c3cccc(O)c3)c(-c3cccc(O)c3)nc2n1 [TG100-115],> 30 µM (inactive)
8,CCn1c(=O)c(-c2cc[nH]n2)cc2c(C)nc(N)nc21 [VOXTALISIB],> 30 µM (inactive)

# Molecular target: Tyrosine-protein kinase Fer (Homo sapiens, UniProt P16591)
row,Compound,Kd
1,OCCn1cc(-c2cnc3nnn(Cc4ccc5ncccc5c4)c3n2)cn1 [PF-04217903],> 30 µM (inactive)
2,CCn1c(=O)c(-c2cc[nH]n2)cc2c(C)nc(N)nc21 [VOXTALISIB],> 30 µM (inactive)

# Molecular target: Deoxycytidine kinase (Homo sapiens, UniProt P27707)
# Sequence (P27707 whole entry): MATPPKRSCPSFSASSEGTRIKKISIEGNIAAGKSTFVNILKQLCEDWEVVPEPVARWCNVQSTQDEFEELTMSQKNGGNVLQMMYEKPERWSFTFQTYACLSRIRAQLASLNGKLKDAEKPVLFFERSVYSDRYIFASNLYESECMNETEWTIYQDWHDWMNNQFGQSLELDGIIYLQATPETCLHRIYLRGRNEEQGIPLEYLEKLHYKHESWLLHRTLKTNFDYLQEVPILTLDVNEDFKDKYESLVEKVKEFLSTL
row,Compound,Kd
1,Cc1nc(N)sc1-c1ccnc(Nc2ccc(N3CCOCC3)cc2)n1 [CYC-116],> 30 µM (inactive)
2,CN1CCN(c2ccc3nc(-c4c(N)c5c(F)cccc5[nH]c4=O)[nH]c3c2)CC1 [DOVITINIB],> 30 µM (inactive)
3,CCn1c(-c2nonc2N)nc2c(C#CC(C)(C)O)ncc(OC[C@H]3CCCNC3)c21 [GSK-690693],> 30 µM (inactive)
4,Cc1cn(-c2cc(NC(=O)c3ccc(C)c(Nc4nccc(-c5cccnc5)n4)c3)cc(C(F)(F)F)c2)cn1 [NILOTINIB],> 30 µM (inactive)
5,OCCn1cc(-c2cnc3nnn(Cc4ccc5ncccc5c4)c3n2)cn1 [PF-04217903],> 30 µM (inactive)
6,O=C(Nc1cccc(Cl)c1)Nc1ncc(CCNc2ncnc3ccsc23)s1 [SNS-314],> 30 µM (inactive)
7,Nc1nc(N)c2nc(-c3cccc(O)c3)c(-c3cccc(O)c3)nc2n1 [TG100-115],0.012 µM (active)
8,CCn1c(=O)c(-c2cc[nH]n2)cc2c(C)nc(N)nc21 [VOXTALISIB],> 30 µM (inactive)

# Molecular target: Atypical kinase COQ8A, mitochondrial (Homo sapiens, UniProt Q8NI60)
# Sequence (Q8NI60 whole entry): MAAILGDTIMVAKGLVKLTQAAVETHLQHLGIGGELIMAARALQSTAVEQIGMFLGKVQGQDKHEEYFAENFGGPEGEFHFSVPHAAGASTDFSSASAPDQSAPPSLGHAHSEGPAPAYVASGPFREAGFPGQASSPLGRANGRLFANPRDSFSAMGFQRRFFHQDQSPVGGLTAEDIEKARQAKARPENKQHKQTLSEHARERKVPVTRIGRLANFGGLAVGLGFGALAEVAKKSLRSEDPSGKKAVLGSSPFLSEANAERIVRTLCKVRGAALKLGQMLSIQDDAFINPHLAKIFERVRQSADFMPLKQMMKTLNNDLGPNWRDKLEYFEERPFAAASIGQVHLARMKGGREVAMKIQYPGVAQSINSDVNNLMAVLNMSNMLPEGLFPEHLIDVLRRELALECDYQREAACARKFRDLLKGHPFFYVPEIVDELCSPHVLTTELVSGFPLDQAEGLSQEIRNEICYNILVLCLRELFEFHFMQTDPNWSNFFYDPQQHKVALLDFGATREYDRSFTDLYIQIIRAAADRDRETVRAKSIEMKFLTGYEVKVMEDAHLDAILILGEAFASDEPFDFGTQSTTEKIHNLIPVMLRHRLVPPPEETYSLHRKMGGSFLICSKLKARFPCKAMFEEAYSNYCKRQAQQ
row,Compound,Kd
1,Cc1nc(N)sc1-c1ccnc(Nc2ccc(N3CCOCC3)cc2)n1 [CYC-116],65.3 µM (active)
2,OCCn1cc(-c2cnc3nnn(Cc4ccc5ncccc5c4)c3n2)cn1 [PF-04217903],> 30 µM (inactive)
3,O=C(Nc1cccc(Cl)c1)Nc1ncc(CCNc2ncnc3ccsc23)s1 [SNS-314],> 30 µM (inactive)
4,CCn1c(=O)c(-c2cc[nH]n2)cc2c(C)nc(N)nc21 [VOXTALISIB],> 30 µM (inactive)

# Molecular target: STE20-like serine/threonine-protein kinase (Homo sapiens, UniProt Q9H2G2)
row,Compound,Kd
1,OCCn1cc(-c2cnc3nnn(Cc4ccc5ncccc5c4)c3n2)cn1 [PF-04217903],> 30 µM (inactive)
2,CCn1c(=O)c(-c2cc[nH]n2)cc2c(C)nc(N)nc21 [VOXTALISIB],> 30 µM (inactive)

# Molecular target: MAP kinase-activated protein kinase 2 (Homo sapiens, UniProt P49137)
# Sequence (P49137 whole entry): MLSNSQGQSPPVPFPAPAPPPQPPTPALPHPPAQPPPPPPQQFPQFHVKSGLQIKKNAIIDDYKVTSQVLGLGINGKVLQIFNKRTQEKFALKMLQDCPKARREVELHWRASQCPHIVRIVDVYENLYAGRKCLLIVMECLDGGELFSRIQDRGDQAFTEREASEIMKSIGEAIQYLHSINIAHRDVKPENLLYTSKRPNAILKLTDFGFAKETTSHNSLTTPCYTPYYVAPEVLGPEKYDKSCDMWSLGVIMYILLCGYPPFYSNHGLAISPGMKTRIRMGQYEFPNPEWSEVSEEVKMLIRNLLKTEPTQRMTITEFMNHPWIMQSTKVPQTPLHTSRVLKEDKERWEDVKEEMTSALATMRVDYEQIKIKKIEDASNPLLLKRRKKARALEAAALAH
row,Compound,Kd
1,OCCn1cc(-c2cnc3nnn(Cc4ccc5ncccc5c4)c3n2)cn1 [PF-04217903],> 30 µM (inactive)
2,CCn1c(=O)c(-c2cc[nH]n2)cc2c(C)nc(N)nc21 [VOXTALISIB],> 30 µM (inactive)

# Molecular target: T2, Mitogen-activated protein kinase kinase kinase 2 (Homo sapiens, UniProt Q9Y2U5)
# T2 sequence (Q9Y2U5 whole entry): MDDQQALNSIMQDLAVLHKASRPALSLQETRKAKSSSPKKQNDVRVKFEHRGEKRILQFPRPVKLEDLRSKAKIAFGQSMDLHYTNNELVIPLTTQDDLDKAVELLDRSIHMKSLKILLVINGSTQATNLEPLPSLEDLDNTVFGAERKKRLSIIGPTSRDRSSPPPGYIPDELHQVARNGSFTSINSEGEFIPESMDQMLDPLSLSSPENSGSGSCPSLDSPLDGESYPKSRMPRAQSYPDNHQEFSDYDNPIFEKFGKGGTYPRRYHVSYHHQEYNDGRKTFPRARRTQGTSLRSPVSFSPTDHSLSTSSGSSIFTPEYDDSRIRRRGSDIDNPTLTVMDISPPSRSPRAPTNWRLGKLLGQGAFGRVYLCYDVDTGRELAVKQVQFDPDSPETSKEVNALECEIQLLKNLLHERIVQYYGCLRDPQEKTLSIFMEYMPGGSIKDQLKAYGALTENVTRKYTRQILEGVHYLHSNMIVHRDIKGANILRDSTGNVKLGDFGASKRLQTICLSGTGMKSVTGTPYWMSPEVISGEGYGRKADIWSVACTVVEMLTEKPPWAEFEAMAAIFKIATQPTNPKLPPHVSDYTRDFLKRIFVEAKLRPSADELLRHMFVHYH
row,Compound,Kd
1,Cc1nc(N)sc1-c1ccnc(Nc2ccc(N3CCOCC3)cc2)n1 [CYC-116],> 30 µM (inactive)
2,OCCn1cc(-c2cnc3nnn(Cc4ccc5ncccc5c4)c3n2)cn1 [PF-04217903],> 30 µM (inactive)
3,O=C(Nc1cccc(Cl)c1)Nc1ncc(CCNc2ncnc3ccsc23)s1 [SNS-314],> 30 µM (inactive)
4,CCn1c(=O)c(-c2cc[nH]n2)cc2c(C)nc(N)nc21 [VOXTALISIB],> 30 µM (inactive)

# Molecular target: Tyrosine-protein kinase Lyn (Homo sapiens, UniProt P07948)
# Sequence (P07948 whole entry): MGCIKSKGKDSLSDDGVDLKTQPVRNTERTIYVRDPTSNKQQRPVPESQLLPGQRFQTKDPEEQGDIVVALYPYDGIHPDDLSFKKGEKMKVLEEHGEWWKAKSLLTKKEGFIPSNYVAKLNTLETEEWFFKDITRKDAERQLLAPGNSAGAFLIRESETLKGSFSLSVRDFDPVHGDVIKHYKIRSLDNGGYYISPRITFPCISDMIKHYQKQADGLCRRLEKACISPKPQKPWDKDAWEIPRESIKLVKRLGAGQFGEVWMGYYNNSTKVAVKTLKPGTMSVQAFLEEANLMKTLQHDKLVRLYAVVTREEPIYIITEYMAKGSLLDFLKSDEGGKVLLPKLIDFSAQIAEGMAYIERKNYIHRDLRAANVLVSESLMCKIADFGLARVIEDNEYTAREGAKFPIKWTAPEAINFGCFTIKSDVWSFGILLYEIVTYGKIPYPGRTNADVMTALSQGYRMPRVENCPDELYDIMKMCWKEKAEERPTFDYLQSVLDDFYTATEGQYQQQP
row,Compound,Kd
1,OCCn1cc(-c2cnc3nnn(Cc4ccc5ncccc5c4)c3n2)cn1 [PF-04217903],> 30 µM (inactive)
2,O=C(Nc1cccc(Cl)c1)Nc1ncc(CCNc2ncnc3ccsc23)s1 [SNS-314],> 30 µM (inactive)
3,CCn1c(=O)c(-c2cc[nH]n2)cc2c(C)nc(N)nc21 [VOXTALISIB],> 30 µM (inactive)

# Molecular target: ATP-dependent RNA helicase DDX3X (Homo sapiens, UniProt O00571)
# Sequence (O00571 whole entry): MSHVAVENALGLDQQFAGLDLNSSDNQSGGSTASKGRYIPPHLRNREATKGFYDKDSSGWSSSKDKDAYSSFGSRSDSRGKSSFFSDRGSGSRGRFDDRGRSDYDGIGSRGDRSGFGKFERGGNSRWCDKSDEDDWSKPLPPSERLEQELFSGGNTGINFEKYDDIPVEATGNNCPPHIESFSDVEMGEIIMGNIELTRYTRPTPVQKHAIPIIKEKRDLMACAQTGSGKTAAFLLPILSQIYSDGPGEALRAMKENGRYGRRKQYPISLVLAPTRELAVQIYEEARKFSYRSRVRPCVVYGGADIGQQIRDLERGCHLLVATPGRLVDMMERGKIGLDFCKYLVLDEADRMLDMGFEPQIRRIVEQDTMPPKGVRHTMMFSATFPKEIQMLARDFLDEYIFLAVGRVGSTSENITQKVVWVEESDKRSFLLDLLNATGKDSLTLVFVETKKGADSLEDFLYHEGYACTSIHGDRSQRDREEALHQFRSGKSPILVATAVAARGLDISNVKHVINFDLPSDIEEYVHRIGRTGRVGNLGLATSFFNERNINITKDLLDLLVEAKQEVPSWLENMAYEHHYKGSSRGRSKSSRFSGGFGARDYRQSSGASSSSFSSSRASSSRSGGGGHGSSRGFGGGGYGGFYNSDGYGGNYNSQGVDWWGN
row,Compound,Kd
1,Cc1nc(N)sc1-c1ccnc(Nc2ccc(N3CCOCC3)cc2)n1 [CYC-116],> 30 µM (inactive)
2,CN1CCN(c2ccc3nc(-c4c(N)c5c(F)cccc5[nH]c4=O)[nH]c3c2)CC1 [DOVITINIB],> 30 µM (inactive)
3,CCn1c(-c2nonc2N)nc2c(C#CC(C)(C)O)ncc(OC[C@H]3CCCNC3)c21 [GSK-690693],> 30 µM (inactive)
4,Cc1cn(-c2cc(NC(=O)c3ccc(C)c(Nc4nccc(-c5cccnc5)n4)c3)cc(C(F)(F)F)c2)cn1 [NILOTINIB],> 30 µM (inactive)
5,OCCn1cc(-c2cnc3nnn(Cc4ccc5ncccc5c4)c3n2)cn1 [PF-04217903],> 30 µM (inactive)
6,O=C(Nc1cccc(Cl)c1)Nc1ncc(CCNc2ncnc3ccsc23)s1 [SNS-314],> 30 µM (inactive)
7,Nc1nc(N)c2nc(-c3cccc(O)c3)c(-c3cccc(O)c3)nc2n1 [TG100-115],> 30 µM (inactive)
8,CCn1c(=O)c(-c2cc[nH]n2)cc2c(C)nc(N)nc21 [VOXTALISIB],> 30 µM (inactive)

# Molecular target: Mitogen-activated protein kinase kinase kinase 1 (Homo sapiens, UniProt Q13233)
# Sequence (Q13233 whole entry): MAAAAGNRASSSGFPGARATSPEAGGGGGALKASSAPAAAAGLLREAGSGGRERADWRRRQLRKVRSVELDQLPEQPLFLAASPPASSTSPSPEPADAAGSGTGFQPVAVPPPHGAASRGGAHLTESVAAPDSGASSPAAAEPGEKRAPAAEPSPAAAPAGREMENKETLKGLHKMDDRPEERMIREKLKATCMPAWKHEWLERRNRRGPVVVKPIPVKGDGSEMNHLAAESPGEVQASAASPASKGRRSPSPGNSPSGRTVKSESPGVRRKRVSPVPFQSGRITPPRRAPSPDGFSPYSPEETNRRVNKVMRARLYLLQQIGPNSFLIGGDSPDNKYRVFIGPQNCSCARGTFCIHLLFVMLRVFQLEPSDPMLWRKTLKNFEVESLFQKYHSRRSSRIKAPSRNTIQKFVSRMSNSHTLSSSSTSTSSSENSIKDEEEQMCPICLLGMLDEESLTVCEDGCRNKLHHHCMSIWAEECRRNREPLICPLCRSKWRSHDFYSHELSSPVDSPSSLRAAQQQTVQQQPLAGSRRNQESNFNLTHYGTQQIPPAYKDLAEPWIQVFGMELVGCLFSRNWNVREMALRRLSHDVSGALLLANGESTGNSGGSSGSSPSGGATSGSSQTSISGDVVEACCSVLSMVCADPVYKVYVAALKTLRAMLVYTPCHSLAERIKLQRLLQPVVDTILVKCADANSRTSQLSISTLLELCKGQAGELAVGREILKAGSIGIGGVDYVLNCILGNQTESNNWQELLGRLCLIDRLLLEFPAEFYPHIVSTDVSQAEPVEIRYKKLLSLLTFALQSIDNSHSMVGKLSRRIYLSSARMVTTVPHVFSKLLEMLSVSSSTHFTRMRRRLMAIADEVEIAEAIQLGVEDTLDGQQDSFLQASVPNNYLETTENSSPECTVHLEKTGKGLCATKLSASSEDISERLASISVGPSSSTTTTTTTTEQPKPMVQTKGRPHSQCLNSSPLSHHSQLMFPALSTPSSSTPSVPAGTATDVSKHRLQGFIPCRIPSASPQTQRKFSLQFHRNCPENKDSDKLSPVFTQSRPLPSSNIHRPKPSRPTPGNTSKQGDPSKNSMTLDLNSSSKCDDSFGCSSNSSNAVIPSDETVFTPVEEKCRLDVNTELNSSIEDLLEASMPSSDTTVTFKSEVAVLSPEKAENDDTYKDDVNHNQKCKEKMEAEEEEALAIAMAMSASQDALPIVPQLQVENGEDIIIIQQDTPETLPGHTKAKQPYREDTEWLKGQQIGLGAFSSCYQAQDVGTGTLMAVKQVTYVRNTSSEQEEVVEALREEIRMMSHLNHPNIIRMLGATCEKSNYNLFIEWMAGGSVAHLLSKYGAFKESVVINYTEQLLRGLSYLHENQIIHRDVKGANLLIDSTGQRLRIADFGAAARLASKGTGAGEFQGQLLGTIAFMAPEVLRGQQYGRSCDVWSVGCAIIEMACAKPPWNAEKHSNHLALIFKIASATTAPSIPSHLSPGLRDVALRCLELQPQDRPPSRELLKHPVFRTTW
row,Compound,Kd
1,Cc1nc(N)sc1-c1ccnc(Nc2ccc(N3CCOCC3)cc2)n1 [CYC-116],8.16 µM (active)
2,OCCn1cc(-c2cnc3nnn(Cc4ccc5ncccc5c4)c3n2)cn1 [PF-04217903],> 30 µM (inactive)
3,CCn1c(=O)c(-c2cc[nH]n2)cc2c(C)nc(N)nc21 [VOXTALISIB],> 30 µM (inactive)

# Molecular target: Non-receptor tyrosine-protein kinase TYK2 (Homo sapiens, UniProt P29597)
row,Compound,Kd
1,OCCn1cc(-c2cnc3nnn(Cc4ccc5ncccc5c4)c3n2)cn1 [PF-04217903],> 30 µM (inactive)
2,CCn1c(=O)c(-c2cc[nH]n2)cc2c(C)nc(N)nc21 [VOXTALISIB],> 30 µM (inactive)
